Measured values reported in patent publication US20160374944A1, “COMPOSITIONS AND METHODS FOR TREATING AND PREVENTING CANCER BY TARGETING AND INHIBITING CANCER STEM CELLS” (priority 2011, published 2016).

What was measured:
Pancreatic CSCs [1] = experiment: cell viability, trypan blue, Vi-CELL analyzer; assay type: cell-based, human
Protocol: Pancreatic CSCs were treated with resveratrol (0-20 μM), curcumin (0-20 μM), honokiol (0-20 μM) and diallyl trisulphide (0-20 μM) for 3 days, and cell viability was measured by staining with trypan blue using Vi-CELL analyzer (Beckman Counter).
Pancreatic CSCs were treated with sulforaphane (0-20 μM), rottlerin (0-2 μM), EGCG (0-60 μM) and embelin (0-5 μM) for 3 days, and cell viability was measured by staining with trypan blue using Vi-CELL analyzer (Beckman Counter).
(§1) (A) Pancreatic CSCs were treated with SAHA (3 and 5 μM) and 5-Aza-dc (2 and 4 μM) and cell viability was measured at 48 h by staining with trypan blue using Vi-CELL analyzer (Beckman Counter). (B) Pancreatic CSCs were untreated (a) or treated with SAHA (b) or 5-Aza-dC (c) for 48 h, and apoptosis was measured by staining with annexin-PI using Accuri Flow Cytometer. (C) Caspase-3/7 activity was measured in pancreatic CSCs treated with SAHA (0.5 and 2 μM) or 5-Aza-dC (1 and 3 μM) for 25 h.
Pancreatic CSCs were treated with resveratrol (0-20 μM), curcumin (0-20 μM), honokiol (0-20 μM), and diallyl trisulphide (0-20 μM) for 3 days and cell viability was measured by staining with trypan blue using Vi-CELL analyzer. The results of those studies are illustrated in FIG. 27.
Pancreatic CSCs were treated with sulforaphane (0-20 μM), rottlerin (0-2 μM), EGCG (0-60 μM), and embelin (0-5 μM) for 3 days and cell viability was measured by staining with trypan blue using Vi-CELL analyzer. The results of those studies are illustrated in FIG. 28.
Pancreatic CSCs were treated with SAHA […] Vorinostat (3 and 5 μM) and 5-Aza-2′-deoxycytidine (5-Aza-dC, 2 and 4 μM) and cell viability was measured at 48 hours by staining with trypan blue using Vi-CELL analyzer. The results of those studies are illustrated in FIG. 31A.

Pancreatic CSCs [2] = experiment: apoptosis; assay type: cell-based, human; details: 48 h, annexin-PI, flow cytometer
Protocol: (A and B) Induction of apoptosis and activation of caspase-3/-7. Pancreatic CSCs were treated with rottlerin (0-2 μM) for 48 h, and apoptosis and caspase-3/-7 activity were measured by […] and colorometric assay, respectively. […] (C) Pancreatic CSCs were treated with rottlerin (0-1 μM) for 48 h, and the expression of Bcl-2, XIAP and Survivin was measured by qRT-PCR and normalized to GAPDH.
as §1
(A) Regulation of caspase-3/7 activity by EGCG. CSCs were treated with EGCG (0-60 μM) for 24 h, and caspase-3/7 activity was measured as per manufacturer's instructions. […] (B) Regulation of apoptosis by EGCG. CSCs were treated with EGCG (0-60 μM) for 48 h, and apoptosis was measured by TUNEL assay. […] (C) Regulation of apoptosis-related proteins. Pancreatic CSCs were treated with EGCG (0-60 μM) for 36 h. Real time PCR (q-RT-PCR) was performed to examine the expression of Bcl-2, survivin, XIAP, and GAPDH.
FIG. 42A and FIG. 42B show graphs showing quercetin synergizes with EGCG to inhibit self-renewal capacity, invasion, migration, and TCF/LEF and Gli transcriptional activities in pancreatic CSCs. (A) Effects of EGCG and quercetin on spheroid and colony formation. Upper Panel, uercetin synergizes with EGCG to inhibit spheroid's cell viability. CSCs were seeded in suspension and treated with EGCG (0-60 μM) with or without quercetin (20 μM) for 7 days. At the end of incubation period, all the spheroids were collected and resuspended. Cell viability was measured by trypan blue assay. […] Lower panel, uercetin synergizes with EGCG to inhibit colony formation. Pancreatic CSCs were seeded in soft agar and treated with various doses of EGCG (0-60 μM) with or without quercetin (20 μM) and incubated at […] for 21 days. At the end of incubation period, colonies were counted. […] (B) Effects of EGCG and quercetin on invasion and migration. Upper panel, Matrigel invasion assay. CSCs were plated onto the Matrigel-coated membrane in the top chamber of the transwell and treated with EGCG (0-60 μM) with or without quercetin (20 μM) for 48 hrs. Cells invaded to the lower chambered were fixed with methanol, stained with crystal violet and counted. […] Lower panel, Transwell migration assay. Pancreatic CSCs were plated in the top chamber of the transwell and treated with EGCG (0-60 μM) with or without quercetin (20 μM) for 48 hrs. Cells migrated to the lower chambered were fixed with methanol, stained with crystal violet and counted. […] (C) Quercetin synergizes with EGCG to induce apoptosis. CSCs were seeded in suspension and treated with EGCG (0-60 μM) with or without quercetin (20 μM) for 7 days. At the end of incubation period, all the spheroids were collected. Apoptosis was measured by TUNEL assay. […] (D) Effects of EGCG and quercetin on TCF/LEF and Gli transcriptional activities. Pancreatic CSCs were transduced with either lentivirus encoding TCF/LEF responsive GFP and luciferase genes or Gli-responsive GFP and luciferase genes. Transduced CSCs were treated with EGCG (40 μM) with or without quercetin (20 μM) for 48 hrs and the luciferase activity was measured.
Pancreatic CSCs were (a) untreated, (b) treated with SAHA, or (c) treated with 5-Aza-dC for 48 hours and apoptosis was measured by staining with annexin-PI using Accuri Flow Cytometer. The results of those studies are illustrated in FIG. 31B.

Pancreatic CSCs [3] = experiment: cell viability by XTT assay; assay type: cell-based, human; details: 3 days; BSC 0-20 μM, honokiol 0-10 μM
Protocol: (§2) (A-B) Pancreatic CSCs were treated with BSC (0-20 μM) and honokiol (0-10 μM); (C-D) Prostate CSCs were treated with PITC (0-20 μM) and BSC (0-20 μM) for 3 days. Cell viability was measured by XTT assay.

Prostate CSCs [4] = experiment: cell viability by XTT assay; assay type: cell-based, human; details: 3 days; PITC 0-20 μM, BSC 0-20 μM
Protocol: as §2

Breast CSCs = experiment: cell viability by XTT assay; assay type: cell-based; details: 3 days
Protocol: Breast CSCs were seeded in 96-well plate and treated with sulforaphane, diallyl trisulphide, resveratrol and curcumin for 3 days. At the end of incubation period, CSCs were harvested and cell viability was measured by XTT assay.
Breast CSCs were seeded in 96-well plate and treated with rottlerin, EGCG, embelin, and honokiol for 3 days. At the end of incubation period, breast CSCs were harvested and cell viability was measured by XTT assay.
(A-D) Breast CSCs were treated with PITC (0-20 μM), BSC, (0-20 μM), sulforaphane (0-20 μM) and honokiol (0-10 μM) for 3 days, and cell viability was measured by XTT assay.
Breast CSCs were treated with rottlerin (0-1 μM) for 3 days, and cell viability was measured by XTT assay.
Breast CSCs were seeded in 96-well plate and treated with sulforaphane, diallyl trisulphide, resveratrol, and curcumin for 3 days and cell viability was measured by XTT assay. The results of those studies are illustrated in FIG. 29.
Breast CSCs were seeded in 96-well plate and treated with Rottlerin, EGCG, embelin, and honokiol for 3 days and cell viability was measured by XTT assay. The results of those studies are illustrated in FIG. 30.

pancreatic cancer = details: background statement; cited from earlier work
Brain CSCs [5] = experiment: cell viability, trypan blue, Vi-CELL analyzer; assay type: cell-based; details: 3 days
Protocol: Brain CSCs were treated with resveratrol (0-20 μM), curcumin (0-20 μM), honokiol (0-20 μM) and diallyl trisulphide (0-10 μM) for 3 days, and cell viability was measured by staining with trypan blue using Vi-CELL analyzer (Beckman Counter).
Brain CSCs were treated with sulforaphane (0-20 μM), rottlerin (0-1 μM), EGCG (0-40 μM) and embelin (0-5 μM) for 48 h, and cell viability was measured by staining with trypan blue using Vi-CELL analyzer (Beckman Counter).
Brain CSCs were treated with resveratrol (0-20 μM), curcumin (0-20 μM) honokiol (0-20 μM), and diallyl trisulphide (0-10 μM) for 3 days and cell viability was measured by staining with trypan blue using Vi-CELL analyzer. The results of those studies are illustrated in FIG. 23.
Brain CSCs were treated with sulforaphane (0-20 μM), rottlerin (0-1 μM), EGCG (0-40 μM), and embelin (0-5 μM) for 48 hours and cell viability was measured by staining with trypan blue using Vi-CELL analyzer. The results of those studies are illustrated in FIG. 24.

Prostate CSCs [6] = experiment: cell viability, trypan blue, Vi-CELL analyzer; assay type: cell-based, human; details: 3 days
Protocol: Prostate CSCs were treated with resveratrol (0-20 μM), curcumin (0-20 μM), honokiol (0-20 μM) and diallyl trisulphide (0-10 μM) for 3 days, and cell viability was measured by staining with trypan blue using Vi-CELL analyzer (Beckman Counter).
Prostate CSCs were treated with sulforaphane (0-20 μM), rottlerin (0-5 μM), EGCG (0-40 μM) and embelin (0-1 μM) for 3 days, and cell viability was measured by staining with trypan blue using Vi-CELL analyzer (Beckman Counter).
Prostate CSCs were treated with resveratrol (0-20 μM), curcumin (0-20 μM), honokiol (0-20 μM), and diallyl trisulphide (0-10 μM) for 3 days and cell viability was measured by staining with trypan blue using Vi-CELL analyzer. The results of those studies are illustrated in FIG. 25.
Prostate CSCs were treated with sulforaphane (0-20 μM), rottlerin (0-5 μM), EGCG (0-40 μM), and embelin (0-1 μM) for 3 days and cell viability was measured by staining with trypan blue using Vi-CELL analyzer. The results of those studies are illustrated in FIG. 26.

Brain CSCs [7] = experiment: cell viability by XTT assay; assay type: cell-based; details: 3 days; 0-20 μM
Protocol: (A-B) Brain CSCs were treated with sulforaphane (0-20 μM), and honokiol (0-20 μM) for 3 days, and cell viability was measured by XTT assay.

[8] = 48 h, SAHA 3 and 5 μM, 5-Aza-dc 2 and 4 μM

| SMILES | cell viability (Breast CSCs) | cell viability (Brain CSCs [5]) | cell viability (Pancreatic CSCs [1]; 3 days) | cell viability (Prostate CSCs [6]) | also measured |
| --- | --- | --- | --- | --- | --- |
| Nc1ncn([C@H]2C[C@H](O)[C@@H](CO)O2)c(=O)n1 [5-Aza-dC, 5-Aza-2′-deoxycytidine, reference compound] | – | – | – | – | cell viability (Pancreatic CSCs [1]; [8]): inhibit cell viability; apoptosis (Pancreatic CSCs [2]): promote apoptosis |
| N#C[Se]Cc1ccccc1 [BSC, benzyl selenocyanate] | inhibit cell viability | – | – | – | cell viability (Pancreatic CSCs [3]): inhibit cell viability; cell viability (Prostate CSCs [4]): inhibit cell viability |
| Nc1ccn([C@@H]2O[C@H](CO)[C@@H](O)C2(F)F)c(=O)n1 [Gemcitabine] | – | – | – | – | pancreatic cancer patients in whom the drug is effective (pancreatic cancer): 30%; survival of pancreatic cancer patients (pancreatic cancer): less than 5 years |
| S=C=Nc1ccccc1 [PITC, phenyl isothiocyanate] | inhibit cell viability | – | – | – | cell viability (Prostate CSCs [4]): inhibit cell viability |
| O=C(CCCCCCC(=O)Nc1ccccc1)NO [SAHA, reference compound] | – | – | – | – | cell viability (Pancreatic CSCs [1]; [8]): inhibit cell viability; apoptosis (Pancreatic CSCs [2]): promote apoptosis |
| COc1cc(/C=C/C(=O)CC(=O)/C=C/c2ccc(O)c(OC)c2)ccc1O [curcumin] | inhibit cell viability | inhibit cell viability | inhibit cell viability | inhibit cell viability | – |
| C=CCSSSCC=C [diallyl trisulphide] | inhibit cell viability | inhibit cell viability | inhibit cell viability | inhibit cell viability | – |
| C=CCc1ccc(O)c(-c2ccc(O)c(CC=C)c2)c1 [honokiol] | inhibit cell viability | inhibit cell viability | inhibit cell viability | inhibit cell viability | cell viability (Pancreatic CSCs [3]): inhibit cell viability; cell viability (Brain CSCs [7]): inhibit cell viability |
| Oc1ccc(C=Cc2cc(O)cc(O)c2)cc1 [resveratrol] | inhibit cell viability | inhibit cell viability | inhibit cell viability | inhibit cell viability | – |
